Results reported in patent US6605645B2, “Linear polyamine compounds and polyamine-based anti-tumor agents” (Riken, priority 1998, dated 2003).
Where two headings read alike, the source gives them in different places.

What was measured:
Format in all cases: cell-based
[1] = system: melanoma (Me) cell line; assay: HCC panel drug sensitivity test, melanoma line; settings: Homo sapiens; LOX-IMVI (Me)
Method: (§1) For the assay of anticancer effect, used was an HCC panel comprising 39 cell lines in total: 7 cell lines of lung cancer (Lu), 6 cell lines of stomach cancer (St), 5 cell lines of colon cancer (Co), 5 cell lines of ovarian cancer (Ov), 6 cell lines of brain tumor (CNS), 5 cell lines of breast cancer (Br), 2 cell lines of renal cancer (Re), 2 cell lines of prostate cancer (xPg) and 1 cell line of melanoma (Me). These were used as one panel, and an in-vitro drug sensitivity test was performed by using the above three compounds to obtain sensitivity patterns against each compound (mean graphs mentioned below). Further, the mean graphs obtained as the results of the above sensitivity test were compared with data in a database.
(§2) Specifically, the drug sensitivity test was performed according to the following procedures. The above 39 cancer cell lines were seeded to a 96-well plate and incubated overnight. On the following day, sample solutions each containing each of the above three compounds (5 doses, usually from 10^-4 M to 10^-8 M with 1 log intervals, the highest concentration is referred to as “High Conc”) were added to the above 96-well plate and cultured for further 2 days. Subsequently, the cell proliferation was calorimetrically determined in the obtained plate by using Sulfo Rhodamine B. […]

[2] = system: breast cancer (Br) cell lines; assay: HCC panel drug sensitivity test, breast cancer lines; settings: Homo sapiens
Method: as §1
(§3) Specifically, the drug sensitivity test was performed according to the following procedures. The above 39 cancer cell lines were seeded to a 96-well plate and incubated overnight. On the following day, sample solutions each containing each of the above three compounds (5 doses, usually from 10^-4 M to 10^-8 M with 1 log intervals, the highest concentration is referred to as “High Conc”) were added to the above 96-well plate and cultured for further 2 days. Subsequently, the cell proliferation was calorimetrically determined in the obtained plate by using Sulfo Rhodamine B.
(§4) In the data analysis, GI50 (concentration at which cell proliferation is inhibited to 50% of a control) is obtained as a parameter for data analysis using the cell number immediately before exposure of cells to the test compound (Time Zero) as a standard. Specifically, the obtained data is used for the following calculation:
(§5) 1) If a mean optical density value at each concentration (OD test) is larger than the OD value at Time Zero (Tz), i.e., OD test >Tz, then percent growth (PG %)=((OD test−Tz)/(OD control−Tz))×100, wherein 1 OD control is the OD value of control. On the contrary, if OD test <Tz, then PG %=((OD test−Tz)/Tz)×100. In this case, PG % is a negative value.
(§6) 2) The above PG % values obtained for each cell line are plotted against concentrations (logarithm) according to the organ cancer type. The concentration at the point where each curve intersects with a horizontal line, provided at PG 50%, corresponds to log GI50.

[3] = system: colon cancer (Co) cell lines; assay: HCC panel drug sensitivity test, colon cancer lines; settings: Homo sapiens
Method: as §1, §3, §4, §5, §6

[4] = system: ovarian cancer (Ov) cell lines; assay: HCC panel drug sensitivity test, ovarian cancer lines; settings: Homo sapiens
Method: as §1, §3, §4, §5, §6

[5] = system: lung cancer (Lu) cell lines; assay: HCC panel drug sensitivity test, lung cancer lines; settings: Homo sapiens
Method: as §1, §3, §4, §5, §6

[6] = system: brain tumor (CNS) cell lines; assay: HCC panel drug sensitivity test, brain tumor lines; settings: Homo sapiens
Method: as §1, §3, §4, §5, §6

[7] = system: stomach cancer (St) cell lines; assay: HCC panel drug sensitivity test, stomach cancer lines; settings: Homo sapiens
Method: as §1, §3, §4, §5, §6

[8] = system: HCC panel comprising 39 cell lines; assay: HCC panel in-vitro drug sensitivity test (Sulfo Rhodamine B), anticancer effect on cultured human cancer cell lines; settings: for Delta / Range: HCC panel log GI50; for Delta: criterion ≧ 0.5; for Range: criterion ≧ 1.0; for evaluation as anticancer agent (criteria A-D: novelty, MG-MID, Delta/Range, COMPARE): HCC panel mean graph evaluation; for GI50: Homo sapiens
Method: The anticancer effect of each compound was determined by using the obtained concentration.
as §1, §3
The obtained data of the measurement results are shown as mean graphs. Mean graphs (also referred to as fingerprints) visually expresses effective concentration deviations of a sample substance against individual cancer cell lines so that the sensitivity of each cancer cell line against the sample can be recognized at a glance. The mean graph is also referred to as fingerprint because it represents a pattern unique to each drug.
as §4, §5, §6
3) Then, “mean graphs” are created. Mean log GI50 values are obtained for all of the assayed cell lines and referred to as mean graph midpoints (MG-MID). A difference between each of the mean values and the log GI50 value for each cell line is obtained (that is, GI50 for each cell line is represented as a logarithmic value of a multiple or an aliquot of the mean value). The resulting differences are depicted as bar charts extending a left or right side from the center line of mean log GI50 (scale 0) to obtain a mean graph. The higher differential sensitivity a cell line has, the longer the bar extends to the right. One scale corresponds to 1 log. The value of “Delta” provided at the bottom of the mean graph represents the difference between the value for the most sensitive cell line and the mean value. The value of “Range” provided below “Delta” represents the difference between the log GI50 values of the most sensitive cell line and the least sensitive one. […]

[9] = system: prostate cancer (xPg) cell lines; assay: HCC panel drug sensitivity test, prostate cancer lines; settings: Homo sapiens; DU-145 (xPg)
Method: as §1, §2

[10] = OVCAR-3 (Ov), read-out: log GI50 (converted)
[11] = OVCAR-4 (Ov), read-out: log GI50 (converted)
[12] = OVCAR-5 (Ov), read-out: log GI50 (converted)
[13] = OVCAR-8 (Ov), read-out: log GI50 (converted)
[14] = DMS-114, DMS114 (Lu), read-out: log GI50 (converted)
[15] = DMS-273, DMS273 (Lu), read-out: log GI50 (converted)
[16] = A549 (Lu), read-out: log GI50 (converted)
[17] = NCI-H23 (Lu), read-out: log GI50 (converted)
[18] = NCI-H226 (Lu), read-out: log GI50 (converted)
[19] = NCI-H460 (Lu), read-out: log GI50 (converted)
[20] = NCI-H522 (Lu), read-out: log GI50 (converted)
[21] = SF-268 (CNS), read-out: log GI50 (converted)
[22] = SF-539 (CNS), read-out: log GI50 (converted)
[23] = SNB-75 (CNS), read-out: log GI50 (converted)
[24] = 48 h, logarithmic values of molar concentration, for many cancer cell lines of the HCC panel, cultured 2 days, Sulfo Rhodamine B, read-out: log GI50 (concentration at which cell proliferation is inhibited to 50% of the control) (converted)
[25] = mean over HCC panel, criterion <−5, read-out: MG-MID (log GI50) (converted)

Compound	GI50 [1]	GI50 ([2]; HBC4, HBC-4 (Br))	GI50 ([2]; HBC5, HBC-5 (Br))	GI50 ([2]; MCF7, MCF-7 (Br))	GI50 ([2]; BSY-1 (Br))	GI50 ([3]; HCC 2998, HCC2998 (Co))	GI50 ([3]; HCT-116 (Co))	GI50 ([3]; HT-29 (Co))	GI50 [4, 10]	GI50 [4, 11]	GI50 [4, 12]	GI50 [4, 13]	GI50 [5, 14]	GI50 [5, 15]	GI50 [5, 16]	GI50 [5, 17]	GI50 [5, 18]	Delta [8]	Range [8]	evaluation as anticancer agent (criteria A-D: novelty, MG-MID, Delta/Range, COMPARE) [8]	also measured
C(CCCNCCCCNCC1CC1)CCNCCCCNCC1CC1 [BCPM464, 1,16-bis(cyclopropylmethylamino)-5,12-diazahexadecane]	6.31 µM	6.92 µM	0.891 µM	13.8 µM	3.55 µM	63.1 µM	6.76 µM	23.4 µM	3.02 µM	2.88 µM	4.37 µM	5.75 µM	4.37 µM	4.37 µM	2.82 µM	3.55 µM	7.24 µM	1.19	2.05	the most interesting	GI50 [5, 19]: 9.77 µM; GI50 [5, 20]: 1.82 µM; GI50 [6, 21]: 87.1 µM; GI50 [6, 22]: 3.16 µM; GI50 [6, 23]: 3.31 µM; GI50 ([6]; U251 (CNS), read-out: log GI50 (converted)): 60.3 µM; GI50 ([7]; MKN-1, MKN1 (St)): 7.24 µM; GI50 ([7]; MKN-7, MKN7 (St)): 4.17 µM; GI50 ([7]; MKN-28, MKN28 (St)): 4.68 µM; GI50 ([7]; MKN-45, MKN45 (St)): 6.46 µM; GI50 ([7]; St-4 (St)): 6.46 µM; GI50 [8, 24]: < 100 µM; GI50 [8, 25]: 13.8 µM
CCNCCCCNCCCCCCCCNCCCCNCC [BET484, 1,18-bis(ethylamino)-5,14-diazaoctadecane]																		1.45	1.62	the most interesting	GI50 ([4]; OVCAR-3, read-out: log GI50 (converted)): 20 µM; GI50 ([4]; OVCAR-4, read-out: log GI50 (converted)): 5.89 µM; GI50 ([4]; OVCAR-5, read-out: log GI50 (converted)): 72.4 µM; GI50 ([5]; A549, read-out: log GI50 (converted)): 16.2 µM; GI50 ([5]; DMS-273, read-out: log GI50 (converted)): 3.02 µM; GI50 ([6]; read-out: log GI50, SF-539 (CNS) (converted)): 7.94 µM; GI50 ([6]; read-out: log GI50, SNB-75 (CNS) (converted)): 12.9 µM; GI50 ([8]; 48 h, read-out: log GI50 (concentration at which cell proliferation is inhibited to 50% of the control) (converted)): < 100 µM; GI50 ([8]; read-out: MG-MID (log GI50) (converted)): 67.6 µM
C(CCCNCCCCNCC1CC1)CCCNCCCCNCC1CC1 [BCPM474]	30.9 µM	4.57 µM	2.24 µM	56.2 µM	7.08 µM	10.2 µM	6.92 µM	8.71 µM	1.66 µM	4.17 µM	5.37 µM	2.75 µM	3.8 µM	4.17 µM	2.82 µM	4.37 µM	9.12 µM	0.84	1.76	the most interesting	GI50 [9]: 67.6 µM; GI50 ([3]; KM12, KM-12 (Co)): 28.2 µM; GI50 ([3]; HCT-15 (Co)): 37.2 µM; GI50 ([4]; SK-OV-3 (Ov), read-out: log GI50 (converted)): 5.75 µM; GI50 [5, 19]: 16.6 µM; GI50 [5, 20]: 3.24 µM; GI50 [6, 21]: 4.68 µM; GI50 ([6]; SF-295 (CNS), read-out: log GI50 (converted)): 8.71 µM; GI50 [6, 22]: 3.47 µM; GI50 [6, 23]: 3.63 µM; GI50 ([7]; MKN-1, MKN1 (St)): 12 µM; GI50 ([7]; MKN-7, MKN7 (St)): 4.37 µM; GI50 ([7]; MKN-28, MKN28 (St)): 5.25 µM; GI50 ([7]; MKN-45, MKN45 (St)): 12 µM; GI50 ([7]; MKN-74, MKN74 (St)): 47.9 µM; GI50 ([7]; St-4 (St)): 6.92 µM; GI50 [8, 24]: < 100 µM; GI50 [8, 25]: 11.5 µM
